From ChEMBL document CHEMBL1201862, “PubChem BioAssay data set” (2004)
Activity calls are given as the source filed them.

How the values were obtained:
[1] = biological target: Dual specificity protein phosphatase 3 (Homo sapiens, UniProt P51452); assay: SAR VHR1 Fluorescent Assay for In Vitro dose response studies Set 3. [Related pubchem assays (depositor defined):AID1654, AID1661, AID1878]; format: functional
[2] = biological target: Delta-type opioid receptor (Homo sapiens, UniProt P41143); assay: Counterscreen for agonists of heterodimerization of the mu 1 (OPRM1) and delta 1 (OPRD1) opioid receptors: Luminescence-based cell-based high throughput dose response assay to identify agonists of OPRD1 homodimerization. [Related pubchem assays (depositor defined):AID504326, AID504355, AID504692, AID504904, AID504905]; format: functional
Delta-type opioid receptor, sequence (P41143 whole entry): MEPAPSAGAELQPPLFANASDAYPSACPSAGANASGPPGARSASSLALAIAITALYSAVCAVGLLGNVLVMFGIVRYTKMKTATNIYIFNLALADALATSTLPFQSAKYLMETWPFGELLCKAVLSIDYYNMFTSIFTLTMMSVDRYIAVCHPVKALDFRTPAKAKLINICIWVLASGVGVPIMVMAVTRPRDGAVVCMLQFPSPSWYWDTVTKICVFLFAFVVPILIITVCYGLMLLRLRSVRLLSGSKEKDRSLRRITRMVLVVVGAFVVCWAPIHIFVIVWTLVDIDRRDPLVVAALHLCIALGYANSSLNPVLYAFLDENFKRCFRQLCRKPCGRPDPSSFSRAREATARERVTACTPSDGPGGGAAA

[3] = biological target: Mu-type opioid receptor (Homo sapiens, UniProt P35372); assay: Counterscreen for agonists of heterodimerization of the mu 1 (OPRM1) and delta 1 (OPRD1) opioid receptors: Luminescence-based cell-based high throughput dose response assay to identify agonists of OPRM1 homodimerization.; format: functional;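 also: U2OS cells expressing OPRM1 and beta-arrestin as split beta-galactosidase partners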
Mu-type opioid receptor, sequence (P35372 whole entry): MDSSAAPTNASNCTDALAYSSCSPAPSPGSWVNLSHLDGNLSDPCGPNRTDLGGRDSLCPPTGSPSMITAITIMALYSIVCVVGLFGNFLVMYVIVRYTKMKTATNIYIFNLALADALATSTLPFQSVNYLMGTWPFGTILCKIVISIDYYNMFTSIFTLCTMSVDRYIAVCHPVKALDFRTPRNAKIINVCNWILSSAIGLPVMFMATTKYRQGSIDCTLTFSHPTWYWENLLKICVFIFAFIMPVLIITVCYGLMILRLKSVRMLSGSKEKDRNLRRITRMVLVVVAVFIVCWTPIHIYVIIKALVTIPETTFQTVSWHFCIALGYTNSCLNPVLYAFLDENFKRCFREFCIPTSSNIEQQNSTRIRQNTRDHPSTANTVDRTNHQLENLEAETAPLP

[4] = biological target: 5-hydroxytryptamine receptor 5A (Homo sapiens, UniProt P47898); assay: Counterscreen for agonists of OPRM1-OPRD1 heterodimerization: luminescence-based cell-based high throughput dose response assay to identify agonists of 5-hydroxytryptamine (serotonin) 5A receptor (HTR5A). [Related pubchem assays (depositor defined):AID504326, AID504355, AID504692, AID504904, AID504905]; format: functional
5-hydroxytryptamine receptor 5A, sequence (P47898 whole entry): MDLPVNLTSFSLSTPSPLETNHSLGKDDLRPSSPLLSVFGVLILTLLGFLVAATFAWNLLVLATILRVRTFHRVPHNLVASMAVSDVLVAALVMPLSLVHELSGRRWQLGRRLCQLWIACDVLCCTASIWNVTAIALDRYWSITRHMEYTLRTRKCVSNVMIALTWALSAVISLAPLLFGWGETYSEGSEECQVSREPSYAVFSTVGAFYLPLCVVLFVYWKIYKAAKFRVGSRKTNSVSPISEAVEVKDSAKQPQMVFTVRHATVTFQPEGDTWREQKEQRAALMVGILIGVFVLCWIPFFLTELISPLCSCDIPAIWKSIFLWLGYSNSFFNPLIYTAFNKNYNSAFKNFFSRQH

[5] = biological target: T1, Short transient receptor potential channel 4 (Mus musculus, UniProt Q9QUQ5); assay: mouse TRPC4 channel activators, dose response, cell-based, HEK293 TRPC4/mu-opioid, Fluo-4 calcium (AID 434937); format: functional
T1 sequence (Q9QUQ5 whole entry): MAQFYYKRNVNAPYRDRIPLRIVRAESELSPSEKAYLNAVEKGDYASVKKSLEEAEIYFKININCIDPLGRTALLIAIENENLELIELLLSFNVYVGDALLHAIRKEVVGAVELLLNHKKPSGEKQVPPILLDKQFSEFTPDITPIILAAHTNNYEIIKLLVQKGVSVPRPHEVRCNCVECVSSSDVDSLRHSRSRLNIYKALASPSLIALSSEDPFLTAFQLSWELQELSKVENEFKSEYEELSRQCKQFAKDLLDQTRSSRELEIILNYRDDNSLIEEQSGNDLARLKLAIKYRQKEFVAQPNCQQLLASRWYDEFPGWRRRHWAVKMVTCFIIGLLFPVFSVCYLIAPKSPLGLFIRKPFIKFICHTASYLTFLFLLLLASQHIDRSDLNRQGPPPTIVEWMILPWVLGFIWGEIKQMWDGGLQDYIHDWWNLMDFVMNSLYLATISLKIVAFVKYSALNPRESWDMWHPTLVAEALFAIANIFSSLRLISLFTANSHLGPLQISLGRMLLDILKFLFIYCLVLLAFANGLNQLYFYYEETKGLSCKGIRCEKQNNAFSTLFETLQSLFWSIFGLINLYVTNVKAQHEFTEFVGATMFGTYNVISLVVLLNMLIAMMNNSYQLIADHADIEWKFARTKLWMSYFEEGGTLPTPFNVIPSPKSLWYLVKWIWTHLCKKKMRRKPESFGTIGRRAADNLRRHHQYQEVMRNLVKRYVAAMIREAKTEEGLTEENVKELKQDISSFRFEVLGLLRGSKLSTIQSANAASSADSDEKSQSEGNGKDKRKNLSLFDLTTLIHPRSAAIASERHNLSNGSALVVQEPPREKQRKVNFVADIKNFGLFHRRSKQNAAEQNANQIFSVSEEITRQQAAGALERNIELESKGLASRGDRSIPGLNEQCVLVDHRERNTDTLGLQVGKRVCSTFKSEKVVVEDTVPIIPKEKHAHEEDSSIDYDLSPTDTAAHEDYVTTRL

[6] = ZM109 Env clade C HIV-1 fusion inhibitors, dose response, HeLa effector, CEM target cells, luciferase, cherry-pick (AID 652058); format: functional, cell-based
[7] = cytotoxicity in MIN6 insulinoma cells, dose response, cytotoxicity control, cell-based, mouse insulinoma (AID 2122); format: functional;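 also: confirmatory high-throughput counterscreen run to flag cytotoxic compounds; mouse MIN-6 beta cells carrying an insulin promoter eGFP reporter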
[8] = biological target: Cyclin-dependent kinase 5/CDK5 activator 1 (Homo sapiens, UniProt Q00535); assay: CDK5/p35 kinase inhibitors, dose response, biochemical, cherry-picked samples, set 2 (AID 504545)
Cyclin-dependent kinase 5/CDK5 activator 1, sequence (Q00535 whole entry, the tested form may be a part): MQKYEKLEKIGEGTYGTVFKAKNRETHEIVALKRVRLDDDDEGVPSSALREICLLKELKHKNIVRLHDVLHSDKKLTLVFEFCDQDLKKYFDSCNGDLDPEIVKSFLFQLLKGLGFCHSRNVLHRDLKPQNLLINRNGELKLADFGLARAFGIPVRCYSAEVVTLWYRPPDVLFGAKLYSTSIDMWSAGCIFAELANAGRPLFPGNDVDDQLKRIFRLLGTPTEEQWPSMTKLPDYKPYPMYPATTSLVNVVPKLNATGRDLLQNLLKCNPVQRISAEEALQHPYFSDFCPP
Cyclin-dependent kinase 5/CDK5 activator 1, sequence (Q15078 whole entry, further chain, the tested form may be a part): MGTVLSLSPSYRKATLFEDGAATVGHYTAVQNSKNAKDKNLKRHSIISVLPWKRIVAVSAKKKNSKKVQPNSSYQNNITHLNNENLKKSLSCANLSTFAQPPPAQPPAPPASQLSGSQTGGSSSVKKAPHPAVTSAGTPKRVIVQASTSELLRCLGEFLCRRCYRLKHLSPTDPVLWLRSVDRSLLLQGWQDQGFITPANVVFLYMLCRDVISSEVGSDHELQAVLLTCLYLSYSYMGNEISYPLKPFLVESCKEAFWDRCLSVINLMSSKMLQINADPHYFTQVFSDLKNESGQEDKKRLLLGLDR

[9] = inhibitors of HIV Env-driven cell fusion, dose response, cherry-pick (AID 652057); format: functional, cell-based
[10] = off-target signal loss in HeLa-CEM21 co-culture – HeLa F-luc CTL cells, cherry-picked, counter-screen for HIV-1 Env fusion inhibitor project, dose response (AID 652040); format: functional, cell-based;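 also: potency for signal decrease marking cytotoxic or nonspecific inhibition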
[11] = insulin promoter down-regulators in MIN6 cells, imaging, high-content screening, mouse beta cells (AID 1628); format: functional
[12] = inhibitors of clade B AD8 Env fusion, dose response, cell-based, cherry-pick (AID 652062); format: functional;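 also: luciferase signal from cell-cell fusion driven by HIV-1 clade B AD8 Env; potency is for inhibitors of fusion seen as a drop in luminescence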
[13] = CEM21 lymphoblast cell cytotoxicity, dose response, cytotoxicity control for viral fusion inhibitor project, CellTiter-Glo luminescence, cherry-picked (AID 652042); format: functional, cell-based;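 also: potency for signal decrease meaning cytotoxicity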
[14] = biological target: T1, Short transient receptor potential channel 4; assay: mouse TRPC4 channel inhibitors, dose response, cell-based, HEK293 TRPC4/mu-opioid, Fluo-4 calcium (AID 434942); format: functional;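 also: potency of inhibitors blocking the TRPC4 calcium response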
[15] = biological target: UDP-galactopyranose mutase (Mycobacterium tuberculosis, UniProt P9WIQ1); assay: Inhibitors of Mycobacterium tuberculosis UDP-galactopyranose mutase (UGM) enzyme Measured in Biochemical System Using Plate Reader - 2105-02_Inhibitor_Dose_CherryPick_Activity. [Related pubchem assays (depositor defined):AID504439]
UDP-galactopyranose mutase, sequence (P9WIQ1 whole entry): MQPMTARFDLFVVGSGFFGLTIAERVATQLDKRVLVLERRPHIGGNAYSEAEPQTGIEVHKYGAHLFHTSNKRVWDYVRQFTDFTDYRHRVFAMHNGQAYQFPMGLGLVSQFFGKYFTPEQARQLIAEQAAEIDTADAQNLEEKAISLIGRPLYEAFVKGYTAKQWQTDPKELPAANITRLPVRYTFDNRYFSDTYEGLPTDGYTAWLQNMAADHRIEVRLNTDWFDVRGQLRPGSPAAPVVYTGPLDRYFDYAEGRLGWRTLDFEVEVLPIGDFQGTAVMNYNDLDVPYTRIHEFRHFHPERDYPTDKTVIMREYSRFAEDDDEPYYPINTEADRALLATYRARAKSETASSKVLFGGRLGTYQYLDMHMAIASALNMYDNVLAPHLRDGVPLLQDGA

Dual specificity protein phosphatase 3, sequence (P51452 whole entry): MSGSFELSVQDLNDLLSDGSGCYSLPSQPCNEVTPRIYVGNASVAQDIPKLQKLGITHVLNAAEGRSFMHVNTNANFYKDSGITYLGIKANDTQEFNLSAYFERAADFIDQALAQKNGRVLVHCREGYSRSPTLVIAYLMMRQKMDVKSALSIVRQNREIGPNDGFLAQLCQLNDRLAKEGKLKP

For `Cc1ccc2sc(-c3ccc(NC(=O)c4cc(-n5cnnc5)ccc4Cl)cc3)nc2c1`, the IC50 [1] was 11.4 µM (active).

In the case of `CCOC(=O)C1(CCOc2ccccc2)CCN(Cc2cnc(C)s2)CC1`, the EC50 [2] is reported as > 92.5 µM (inactive), the EC50 [3] is reported as > 92.5 µM (inactive) and the EC50 [4] is reported as > 92.5 µM (inactive). For the same compound, the EC50 [5] was 0.237 µM (active).

For `CCCn1c(NC(=O)c2cccc(S(=O)(=O)N3CCCC3)c2)nc2ccccc21`, the AC50 [6] was 11.2 µM (active), the IC50 [7] was 4.19 µM (active) and the AC50 [8] was 3.94 µM (active). The AC50 [9] was 8.66 µM (active), the AC50 [10] was 20.4 µM (active) and the IC50 [11] was 3.34 µM (active). The AC50 [12] was 9.76 µM (active), the AC50 [13] was 9.5 µM (active) and the EC50 [14] was 0.749 µM (active).

With `CCOC(=O)c1c(O)[n+]([O-])c2ccc(OC)cc2[n+]1[O-]` the AC50 [15] was 200 µM (active).
